Experimental data from US20120128788A1, “COLLAGEN PRODUCTION ENHANCER” (SOFSERA CORPORATION, priority 2009, published 2012).
Values joined by “and” are separate entries in the source; they are usually repeats but may differ in a detail not shown here. Equal values may be shown once.

Test system: Fibroblasts of a normal human
Assay: Test for determining activity of fibroblast to enhance type I collagen production (ELISA of culture medium)
Type: cell-based
Conditions: positive control, 25 μM, 24 h, n=6
Protocol: Fibroblasts of a normal human were cultured for 24 hours in 0.5% FBS-DMEM culture medium containing the test sample, and the amount of collagen in the culture medium was quantified by ELISA. The test was carried out by repeating six times for each condition (n=6). As a positive control (P.C.), magnesium ascorbyl phosphate (VCPMg) was used. The test samples employed were the calcined hydroxyapatite that is produced in the Production Example 1 and the non-calcined hydroxyapatite that is used in the Production Example 2.

## O=C1O[C@H]([C@@H](O)CO)C([O-])=C1OP(=O)([O-])[O-].O=C1O[C@H]([C@@H](O)CO)C([O-])=C1OP(=O)([O-])[O-].[Mg+2].[Mg+2].[Mg+2] [VC-PMg, magnesium ascorbyl phosphate]
  Collagen Mean ± SD: 24.28 ± 1.06 μg/mg protein and 19.75 ± 1.11 μg/mg protein
